Results: PubChem BioAssay (NCI)
Values joined by “and” are separate entries in the source; they are usually repeats but may differ in a detail not shown here. Equal entries are not always repeated.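 Five concentrations, 48 hours, 96-well plates. Here, GI50 denotes the concentration required for 50% inhibition of growth. TGI is the concentration that stops growth completely.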

Tests used:
Test in all cases: NCI-60 cell line screen, 48 h
OVCAR-4 ovarian = system: OVCAR-4 ovarian
HT29 colon = system: HT29 colon
HL-60(TB) leukemia = system: HL-60(TB) leukemia
OVCAR-5 ovarian = system: OVCAR-5 ovarian
UO-31 renal = system: UO-31 renal
K-562 leukemia = system: K-562 leukemia
UACC-62 melanoma = system: UACC-62 melanoma
786-0 renal = system: 786-0 renal
SR leukemia = system: SR leukemia
UACC-257 melanoma = system: UACC-257 melanoma

| Structure (SMILES) | TGI (OVCAR-4 ovarian) | TGI (HT29 colon) | TGI (HL-60(TB) leukemia) | TGI (OVCAR-5 ovarian) | TGI (UO-31 renal) [µM] | TGI (K-562 leukemia) | TGI (UACC-62 melanoma) | TGI (786-0 renal) [µM] | TGI (SR leukemia) [µM] | TGI (UACC-257 melanoma) [µM] | GI50 (OVCAR-4 ovarian) | GI50 (HL-60(TB) leukemia) | GI50 (UACC-62 melanoma) | GI50 (HT29 colon) [µM] | GI50 (OVCAR-5 ovarian) [µM] | GI50 (UO-31 renal) [µM] | GI50 (K-562 leukemia) [µM] | GI50 (UACC-257 melanoma) [µM] | GI50 (SR leukemia) [µM] |
| --- | --- | --- | --- | --- | --- | --- | --- | --- | --- | --- | --- | --- | --- | --- | --- | --- | --- | --- | --- |
| Cc1cc(=O)n2nc(SCc3ccccc3)sc2n1 | > 100 µM | > 100 µM | > 100 µM | > 100 µM | 67.5 | > 100 µM | > 100 µM | > 100 | > 100 | – | – | – | – | – | – | – | – | – | – |
| CC(=O)O[C@@H]1C[C@@]23C[C@@]24CC[C@H](OC2OCC(O)C(O)C2O)C(C)(C)[C@@H]4CC=C3[C@]2(C)C[C@@H]3OC4(C[C@@H](C)[C@@H]3[C@@]12C)OC(O)[C@@]1(C)O[C@@H]41 (some centres not stated) | > 100 µM | > 100 µM | 36.4 µM | > 100 µM | > 100 | > 100 µM | 54.8 µM | 63.1 | – | 67 | – | – | – | – | – | – | – | – | – |
| O=C(/C(=C\C(=O)c1cccs1)c1ccsc1)c1ccc(Br)cc1 | – | > 100 µM | > 100 µM | – | > 100 | > 100 µM | > 100 µM | > 100 | > 100 | > 100 | – | – | – | – | – | – | – | – | – |
| COc1cccc(CC(C)NCC(O)c2ccc(O)c(O)c2)c1 (configuration not stated) | > 100 µM | > 100 µM | – | 47.4 µM | > 100 | > 100 µM | > 100 µM | > 100 | 67.4 | > 100 | – | – | – | – | – | – | – | – | – |
| CC1OC2=N[C@@H]1C(=O)N[C@@H](C(C)C)C1=N[C@H](C(=O)N[C@@H](C(C)C)C3=N[C@H](C(=O)N[C@@H](C(C)C)C4=N[C@H](C(=O)N[C@H]2C(C)C)C(C)O4)C(C)O3)C(C)O1 (some centres not stated) | > 10 µM | > 10 µM | > 10 µM | > 10 µM | > 10 | > 10 µM | – | > 10 | > 10 | > 10 | – | – | – | – | – | – | – | – | – |
| Cc1ccc(C(C)(C)C[P+](C)(c2ccccc2)c2ccccc2)cc1 | 63.7 µM | 43.8 µM | 7.56 µM | > 100 µM | > 85 | 46 µM | 61.4 µM | – | – | > 26.7 | – | – | – | – | – | – | – | – | – |
| C/C(=C\c1ccccn1)c1ccccn1 | > 100 µM | > 100 µM | – | > 100 µM | > 100 | > 100 µM | > 100 µM | > 100 | – | > 100 | – | – | – | – | – | – | – | – | – |
| CC[N+]1(C)CCC(O)(/C=C/c2ccc(OC)cc2)C(C(=O)/C=C/c2ccc(OC)cc2)C1 (configuration not stated) | > 59.6 µM | > 74.5 µM | 5.03 µM | 44.1 µM | 26.6 | 4.5 µM | 43.8 µM | > 25.8 | – | 42.4 | – | – | – | – | – | – | – | – | – |
| Clc1ccc(Cc2nc3ccccc3nc2-c2cccc(Br)c2)cc1 | – | 6.13 µM | 6.49 µM | 16.6 µM | 3.38 | 8.46 µM | 4.01 µM | 3.48 | – | 7.7 | – | – | – | – | – | – | – | – | – |
| [Cl][Pt+2][Cl].[NH-]C1CCCCC1[NH-] (configuration not stated) | 64.2 µM and 90.5 µM and 47.1 µM | > 100 µM and 31 µM | 4.49 µM and 8.45 µM and 1.89 µM | 78.4 µM and > 100 µM and 14.3 µM | > 100 | > 100 µM and 17.8 µM | 43.4 µM and > 100 µM and 17.3 µM | – | – | > 96.6 | 14.5 µM and 9.24 µM and 2.19 µM | 0.884 µM and 1.46 µM and 0.199 µM | 11.7 µM and 10.1 µM and 1.47 µM | – | – | – | – | – | – |
| NC(=S)N/N=C\c1ccc(OCc2cccc(COc3ccc(/C=N/NC(N)=S)cc3)n2)cc1 | > 100 µM | > 100 µM | > 100 µM | 52.1 µM | > 100 | > 100 µM | – | > 100 | > 100 | > 100 | – | – | – | – | – | – | – | – | – |
| COC(=O)C1CCC(=O)N1C(=O)Cc1ccc(OC)cc1 (configuration not stated) | > 100 µM | > 100 µM | – | > 100 µM | > 100 | – | > 100 µM | – | – | > 100 | – | – | – | – | – | – | – | – | – |
| COc1cc2c(cc1OCCCC(=O)Nc1cc(C(=O)Nc3cc(C(=O)Nc4cc(C(=O)NCCCN(C)C)n(C)n4)n(C)n3)n(C)n1)N=CC1CCCN1C2=O (configuration not stated) | 35.7 µM | 51.3 µM | > 100 µM | 72.2 µM | 16.6 | > 100 µM | 40.6 µM | > 100 | – | 40.9 | – | – | – | – | – | – | – | – | – |
| CCOP(=O)(OCC)C(Nc1cccc(F)c1)c1ccccc1 (configuration not stated) | > 100 µM | > 100 µM | 55.3 µM | – | > 100 | > 100 µM | > 100 µM | > 100 | > 100 | > 100 | – | – | – | – | – | – | – | – | – |
| COc1ccc(/C=c2\[nH]c3nc(=O)c(N4CCOCC4)c(N)n3c2=O)cc1 | > 100 µM | > 100 µM | > 100 µM | > 100 µM | > 100 | > 100 µM | – | > 100 | > 100 | > 100 | – | – | – | – | – | – | – | – | – |
| OCC1OC(n2cnc3cncnc32)C(O)C1O (configuration not stated) | 2.63 µM | 2.89 µM | 1.73 µM | 4.02 µM | 6.84 | 9.77 µM | 2.46 µM | – | – | 3.75 | – | – | – | – | – | – | – | – | – |
| CC(C)=CCC/C(C)=C/CC/C(C)=C/Cc1c(O)c2ccccc2oc1=O | > 100 µM | > 100 µM | > 100 µM | – | > 100 | > 100 µM | > 100 µM | > 100 | > 100 | > 100 | – | – | – | – | – | – | – | – | – |
| N#Cc1nc(CCCCCN2C(=O)c3ccccc3C2=O)oc1N | > 100 µM | > 100 µM | – | > 100 µM | > 100 | > 100 µM | – | > 100 | > 100 | > 100 | – | – | – | – | – | – | – | – | – |
| CCOC(=O)c1c(CN2CCNCC2)nc2ccccc2c1-c1ccccc1 | 33.1 µM | 17.8 µM | 30.6 µM | 31.1 µM | 21.7 | 27.2 µM | 28.2 µM | 25.3 | – | 15.7 | – | – | – | – | – | – | – | – | – |
| Cn1nc2n(c1=O)CCCN2 | > 100 µM | > 100 µM | > 100 µM | > 100 µM | – | > 100 µM | – | > 100 | > 100 | > 100 | – | – | – | – | – | – | – | – | – |
| C/C(=N\NC(=S)N1CCCCC1)c1cccc(C)n1 | 51.6 µM | 16.2 µM | – | 21.1 µM | 1.53 | > 73.8 µM | 0.352 µM | 1.19 | > 100 | 12.1 | – | – | – | – | – | – | – | – | – |
| Cc1cc(/C=C\c2ccc3ccccc3[n+]2C)c(O)c2ncccc12 | 1.73 µM | 21.7 µM | – | 6.19 µM | 3.27 | > 100 µM | 2.62 µM | – | > 100 | 6.59 | 0.323 µM | 0.125 µM | 0.207 µM | 0.218 | 0.829 | 0.405 | 0.169 | 1.54 | 0.168 |
| CN(C)CCNC(=O)c1ccc(NCCCN(C)CCCNc2ccc3c(=O)n(CCN(C)C)c(=O)n4c5ccccc5c(=O)c2c34)c2c(=O)c3ccccc3[nH]c12 | 0.197 µM | 0.161 µM | 0.273 µM | 0.68 µM | 0.301 | 1.06 µM | 0.239 µM | 0.11 | – | 0.718 | – | – | – | – | – | – | – | – | – |
